Test results taken from ChEMBL document CHEMBL5226341, “Discovery of a Potent FLT3 Inhibitor (LT-850-166) with the Capacity of Overcoming a Variety of FLT3 Mutations” (J Med Chem, 2021).
Active and inactive are the calls of the source. The calls are words filed in the database; no cut-off is given here.

How the values were obtained:
[1] = biological target: Receptor-type tyrosine-protein kinase FLT3 (Homo sapiens) (UniProt P36888); test: Inhibition of FLT3 in human MV4-11 cells assessed as inhibition of STAT5 phosphorylation at Tyr694 residue incubated for 4 hrs by western blot analysis; type: cell-based; settings: dose 0.1-100 nM
[2] = biological target: Receptor-type tyrosine-protein kinase FLT3 (Homo sapiens) (UniProt P36888); test: Inhibition of FLT3 in human MV4-11 cells assessed as inhibition of FLT3 phosphorylation at Tyr589/591 residue incubated for 4 hrs by western blot analysis; type: cell-based; settings: dose 0.1-100 nM
[3] = test system: BaF3; test: Antiproliferative activity against mouse BaF3 cells harboring FLT3-ITD-F691L mutant assessed as residual cell viability at 50 nM incubated for 72 hrs by CellTiterGlo luminescent assay; type: functional
[4] = test system: BaF3; test: Antiproliferative activity against mouse BaF3 cells harboring FLT3-ITD-N676D mutant assessed as reduction in cell viability measured after 72 hrs by CellTiterGlo luminescent assay; type: functional, cell-based; settings: BaF3, 72 h
[5] = Ratio of IC50 for antiproliferative activity against mouse BaF3 cells harboring FLT3-ITD-F691L mutant to IC50 for antiproliferative activity against mouse BaF3 cells harboring FLT3-ITD mutant; type: functional
[6] = test system: HCD-57; test: Antiproliferative activity against mouse HCD-57 cells harboring FLT3-ITD mutant assessed as reduction in cell viability measured after 72 hrs by CellTiterGlo luminescent assay; type: functional, cell-based
[7] = test system: MDA-MB-231; test: Antiproliferative activity against human MDA-MB-231 cells assessed as reduction in cell viability measured after 72 hrs by CellTiterGlo luminescent assay; type: functional, cell-based; settings: MDA-MB-231, 72 h
[8] = test system: Panc02; test: Antiproliferative activity against mouse Panc02 cells assessed as reduction in cell viability measured after 72 hrs by CellTiterGlo luminescent assay; type: functional, cell-based; settings: Panc02, 72 h
[9] = test system: NB-4; test: Antiproliferative activity against human NB-4 cells assessed as reduction in cell viability measured after 72 hrs by CellTiterGlo luminescent assay; type: functional, cell-based; settings: NB-4, 72 h
[10] = test system: THP-1; test: Antiproliferative activity against human THP-1 cells assessed as reduction in cell viability measured after 72 hrs by CellTiterGlo luminescent assay; type: functional, cell-based; settings: THP-1, 72 h
[11] = biological target: Receptor-type tyrosine-protein kinase FLT3 (Homo sapiens) (UniProt P36888); test: Inhibition of FLT3 in human MV4-11 cells assessed as inhibition of FLT3 phosphorylation at Tyr589/591 residue at 10 nM incubated for 4 hrs by western blot analysis; type: cell-based
[12] = biological target: Receptor-type tyrosine-protein kinase FLT3 (Homo sapiens) (UniProt P36888); test: Inhibition of FLT3 in human MV4-11 cells assessed as inhibition of STAT5 phosphorylation at Tyr694 residue at 10 nM incubated for 4 hrs by western blot analysis; type: cell-based
[13] = biological target: Receptor-type tyrosine-protein kinase FLT3 (Homo sapiens) (UniProt P36888); test: Inhibition of FLT3 in human MV4-11 cells assessed as inhibition of ERK phosphorylation at Thr202/Tyr204 residue at 10 nM incubated for 4 hrs by western blot analysis; type: cell-based
[14] = test system: Receptor-type tyrosine-protein kinase FLT3 (Homo sapiens), P36888 [UNDEFINED MUTATION]; type: cell-based; settings: BaF3, dose 0.1-100 nM, time 4.0 hrs
[15] = test system: Receptor-type tyrosine-protein kinase FLT3 (Homo sapiens), P36888 [UNDEFINED MUTATION]; test: Inhibition of FLT3-ITD-F691L mutant (unknown origin) transformed in mouse BaF3 cells assessed as inhibition of FLT3 phosphorylation at Tyr589/591 residue incubated for 4 hrs by western blot analysis; type: cell-based; settings: dose 0.1-100 nM
[16] = test system: Receptor-type tyrosine-protein kinase FLT3 (Homo sapiens), P36888 [UNDEFINED MUTATION]; test: Inhibition of FLT3-ITD-F691L mutant (unknown origin) transformed in mouse BaF3 cells assessed as inhibition of STAT5 phosphorylation at Tyr694 residue incubated for 4 hrs by western blot analysis; type: cell-based; settings: dose 0.1-100 nM
[17] = test system: MV4-11; test: Induction of apoptosis in human MV4-11 cells assessed as late apoptotic cells at 50 nM incubated for 24 hrs by AnnexinV-FITC/PI staining based flow cytometry (reference value: 4.2%); type: functional
[18] = test system: MV4-11; test: Induction of apoptosis in human MV4-11 cells assessed as viable cells at 100 nM incubated for 24 hrs by AnnexinV-FITC/PI staining based flow cytometry (reference value: 92.3%); type: functional; settings: read-out: Activity
[19] = test system: MV4-11; test: Induction of apoptosis in human MV4-11 cells assessed as early apoptotic cells at 100 nM incubated for 24 hrs by AnnexinV-FITC/PI staining based flow cytometry (reference value: 3.09%); type: functional
[20] = test system: HCD-57; test: Induction of apoptosis in mouse HCD-57 cells harboring FLT3-D835Y mutant at 100 nM incubated for 24 hrs by AnnexinV-FITC/PI staining based flow cytometry; type: functional, cell-based
[21] = test system: MV4-11; test: Induction of cell cycle arrest in human MV4-11 cells assessed as proportion of cells at G1 phase at 10 nM incubated for 24 hrs by PI staining based flow cytometry (reference value: 56%); type: functional
[22] = test system: MV4-11; test: Induction of cell cycle arrest in human MV4-11 cells assessed as proportion of cells at G1 phase at 50 nM incubated for 24 hrs by PI staining based flow cytometry (reference value: 56%); type: functional
[23] = test system: HCD-57; test: Induction of cell cycle arrest in mouse HCD-57 cells harboring FLT3-ITD mutant at 100 nM incubated for 24 hrs by PI staining based flow cytometry; type: functional
[24] = test system: HCD-57; test: Induction of cell cycle arrest in mouse HCD-57 cells harboring FLT3-D835Y mutant at 100 nM incubated for 24 hrs by PI staining based flow cytometry; type: functional
[25] = MRT (0 to t) in Sprague-Dawley rat at 1 mg/kg, iv measured for 24 hrs by LC-MS/MS analysis; type: ADME, organism-based; settings: in vivo
[26] = Initial drug concentration in Sprague-Dawley at 1 mg/kg, iv by LC-MS/MS analysis; type: ADME, organism-based; settings: rat, in vivo
[27] = MRT (0 to t) in Sprague-Dawley rat at 10 mg/kg, po measured for 24 hrs by LC-MS/MS analysis; type: ADME, organism-based; settings: in vivo
[28] = Cmax in Sprague-Dawley rat at 10 mg/kg, po measured for 24 hrs by LC-MS/MS analysis; type: ADME, organism-based; parameters: time 24 hrs, dose 10 mg/kg, route po; settings: in vivo
[29] = Tmax in Sprague-Dawley rat at 10 mg/kg, po measured for 24 hrs by LC-MS/MS analysis; type: ADME, organism-based; settings: in vivo
[30] = Toxicity in BALB/c mouse xenografted with human MV4-11 cells assessed as change in body weight at 15 mg/kg, iv QD for 21 days; type: organism-based; settings: in vivo, 504 h, time 21 day
[31] = Toxicity in BALB/c mouse xenografted with human MV4-11 cells assessed as lymphocyte count at 15 mg/kg, iv for 21 days; type: organism-based; settings: in vivo, 504 h, time 21 day
[32] = Toxicity in BALB/c mouse xenografted with human MV4-11 cells assessed as granulocyte count at 15 mg/kg, iv for 21 days; type: organism-based; settings: in vivo, 504 h, time 21 day
[33] = Toxicity in BALB/c mouse xenografted with human MV4-11 cells assessed as morphological changes in heart at 15 mg/kg, iv for 21 days by H and E staining based analysis; type: organism-based; settings: in vivo, 504 h, time 21 day
[34] = Toxicity in BALB/c mouse xenografted with human MV4-11 cells assessed as morphological changes in spleen at 15 mg/kg, iv for 21 days by H and E staining based analysis; type: organism-based; settings: in vivo, 504 h, time 21 day
[35] = Toxicity in ICR mouse assessed as behavioural changes at 100 mg/kg, iv administered as single dose and measured for 14 days; type: organism-based; settings: in vivo, 336 h, time 14 day
[36] = test system: BaF3; test: cells; settings: Mus musculus, BaF3, 72 h
Description: Antiproliferative activity against mouse BaF3 cells harboring FLT3-ITD-D835V mutant assessed as reduction in cell viability measured after 72 hrs by CellTiterGlo luminescent assay

Chain of Receptor-type tyrosine-protein kinase FLT3 (Homo sapiens), P36888 [UNDEFINED MUTATION] (P36888 whole entry, looked up, stated change not applied): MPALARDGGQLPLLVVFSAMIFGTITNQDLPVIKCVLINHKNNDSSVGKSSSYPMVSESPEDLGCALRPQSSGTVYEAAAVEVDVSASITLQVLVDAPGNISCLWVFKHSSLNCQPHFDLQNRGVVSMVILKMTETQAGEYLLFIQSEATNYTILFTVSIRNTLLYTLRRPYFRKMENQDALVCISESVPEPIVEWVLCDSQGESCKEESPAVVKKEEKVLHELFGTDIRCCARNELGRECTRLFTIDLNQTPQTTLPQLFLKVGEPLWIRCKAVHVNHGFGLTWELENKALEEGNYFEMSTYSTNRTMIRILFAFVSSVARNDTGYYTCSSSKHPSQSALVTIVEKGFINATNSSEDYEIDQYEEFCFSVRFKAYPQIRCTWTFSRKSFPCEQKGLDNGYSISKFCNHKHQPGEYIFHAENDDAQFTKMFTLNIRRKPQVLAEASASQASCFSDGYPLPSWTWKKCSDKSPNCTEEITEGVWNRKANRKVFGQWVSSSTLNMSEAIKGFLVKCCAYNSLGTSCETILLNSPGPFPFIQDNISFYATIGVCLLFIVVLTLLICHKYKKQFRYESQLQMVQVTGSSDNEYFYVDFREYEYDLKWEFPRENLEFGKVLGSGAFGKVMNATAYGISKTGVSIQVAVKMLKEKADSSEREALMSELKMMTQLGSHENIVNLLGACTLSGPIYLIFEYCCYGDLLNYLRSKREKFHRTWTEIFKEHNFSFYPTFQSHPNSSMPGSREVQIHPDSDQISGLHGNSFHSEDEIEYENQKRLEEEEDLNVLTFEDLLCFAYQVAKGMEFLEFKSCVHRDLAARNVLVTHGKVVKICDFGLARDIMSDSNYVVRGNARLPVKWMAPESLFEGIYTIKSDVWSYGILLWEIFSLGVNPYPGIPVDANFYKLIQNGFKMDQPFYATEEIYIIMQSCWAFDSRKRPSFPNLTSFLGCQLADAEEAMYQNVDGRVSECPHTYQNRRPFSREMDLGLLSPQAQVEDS
Chain of Receptor-type tyrosine-protein kinase FLT3 (Homo sapiens) (P36888 whole entry): as the sequence (P36888 whole entry, looked up, stated change not applied) above

In the case of `CCN1CCN(c2ccc(C(=O)Nc3cc(-c4ccc5ncn(Cc6c(Cl)cccc6Cl)c5c4)[nH]n3)cc2)CC1`, the inhibition [1] is reported as “Dose-Dependent Effect”, the inhibition [2] is reported as “Dose-Dependent Effect” and the Activity [3] is reported as 2.54%. The IC50 [4] was 42.4 nM, the “Ratio IC50” value [5] was 1.09 and the Activity [6] was “Active”. The IC50 [7] was 3850 nM, the IC50 [8] was 2740 nM and the IC50 [9] was > 5000 nM. The IC50 [10] was > 5000 nM, the inhibition [11] was 100% and the inhibition [12] was 100%. The inhibition [13] was 100%, the inhibition [14] was “Dose-Dependent Effect” and the inhibition [15] was “Dose-Dependent Effect”. The inhibition [16] was “Dose-Dependent Effect”, the Activity [17] was 26.3% and the viability at 0.1 µM [18] was 59.7%. For the same molecule, the Activity [19] was 15.2%, the Activity [20] was “Active” and the Activity [21] was 88.7%. The Activity [22] was 88.1%, the Activity [23] was “Active” and the Activity [24] was “Active”. It also gave an MRT last at 24 h [25] of 1.96 h, a C0 [26] of 368 ng/mL and an MRT last at 24 h [27] of 3.63 h. The Cmax [28] was 9.31 ng/mL, the Tmax [29] was 1.33 h and the Activity [30] was “Non-Toxic”. The Activity [31] was “Non-Toxic”, the Activity [32] was “Non-Toxic” and the Activity [33] was “Non-Toxic”. For the same molecule, the Activity [34] was “Non-Toxic”, the Activity [35] was “Non-Toxic” and the IC50 [36] was < 1.5 nM.
